How the values were obtained:
[1] = tested on: degenerating neurons in dentate gyrus of TBI mice; experiment: Fluoro-Jade B staining of degenerating neurons; type: in vivo, mouse; conditions: 0.05 mg/kg, 24 hours post-injury, 6 vehicle and 6 CN-105 mice, p < 0.00001
Method: To assess the effects of CN-105 on inflammation, neuronal injury and neuronal loss, immunohistochemical(IHC) staining was performed using the F4/80 antibody(a marker for mature microglia and macrophages; rat monoclonal, 1:10,000; Serotec, Raleigh, NC) and the Fluoro-Jade B stain(a marker of degenerating neurons; Histo-Chem Inc. Jefferson, AR) on days 10 and 1, respectively, after TBI. IHC was performed on separate cohorts of mice from those used in neurobehavioral tests. As previously described, mice were anesthetized, euthanized, and perfused with 30 ml phosphate-buffered saline(PBS) via transcardiac puncture. The brains were then immersed in buffered formalin overnight and saturated with 30% sucrose in buffer. Sagittal sections(40 μm) were sliced on a freezing microtome and collected in cryoprotectant solution. […]
For Fluoro-Jade B, brain sections from 12 TBI mice(6 vehicle and 6 CN-105) containing the dorsal hippocampus(5–6 sections per animal) were examined for degenerating neurons using an epifluorescence microscope(Nikon, Tokyo, Japan) with a medium band blue excitation(Nikon B-2A, 450–490 nm) filter set. […] Degenerating neurons were counted and the total number of Fluoro-Jade B-positive neurons per every eighth brain slice was recorded. […]

[2] = mouse, in vivo, iv, 1.92 mg/kg
Method: Pharmacokinetic studies were conducted by Xenobiotic Laboratories(Plainsboro, NJ). Briefly, male CD-1 mice received a single IV bolus dose of [^14C] CN-105 52 μCi/mg(dose of 1.92 mg/kg, and approximately 100 μCi/kg) by tail vein injection. At 0.083, 0.5, 1, 6, 24, and 48 hours post-dose terminal blood samples were collected from 2 animals per timepoint and plasma was isolated for radiometric analysis.
To assess CNS penetration, quantitative whole body autoradiography(QWBA) analysis was performed and areas of interest in blood and brain were compared. The carcasses were frozen in a dry ice/hexane bath and embedded in low viscosity carboxymethylcellulose for sagittal, 30-μm thick sections of low viscosity carboxymethylcellulose-of mouse carcasses were sectioned. Pharmacokinetic data were generated by non-compartmental PK analysis of total radioactivity concentration vs. time profiles for tissues using WinNonlin(version 6.3, Pharsight Corporation, Mountain View, CA).
Selected tissues and areas of interest(AOI) were analyzed using QWBA. The tissues and AOI were analyzed within AIDA software using a region sampling tool. The following parameters were derived for individual subjects: maximum tissue and plasma concentration(Cmax), time of Cmax(tmax), area under the tissue concentration versus time curve from time zero to the last quantifiable tissue concentration(AUC0-t), area under the tissue concentration versus time curve from time zero to 4 hours(AUC0-4), and the apparent terminal half-life(t½). AUC0-4 was calculated using the linear trapezoidal rule. Results for AOIs are expressed in nanogram equivalents of(^14C) CN-105 per gram of tissue(ng equv./g) and were calculated as follows: ng equiv./g is equal to nCi per gram of tissue per nCi/ng of(^14C) CN-105.

Substance: Ac-VSRRR-amide [CN-105]
- number of Fluoro-Jade B positive neurons, dorsal hippocampus, compared to vehicle [1]: significant decrease in the number of Fluoro-Jade B positive neurons
- initial plasma half-life [2]: 29 min
- tmax in serum [2]: 5 min
- tmax in the brain [2]: 30 min
